Assay results as given in ChEMBL document CHEMBL1201862, “PubChem BioAssay data set” (2004).
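In this assay, cells in 96-well plates receive the compound at five concentrations for 48 hours. Endpoints are linearly interpolated between the surrounding concentrations. GI50 = concentration required for 50% inhibition of growth.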 Activity calls are given as the source filed them. Rule as the data show it: active = GI50 up to about 1.1 µM and inactive = higher.

What was measured:
Assay in all cases: NCI tumour cell line growth inhibition, 48 h
NCI-H522 = system: NCI-H522
OVCAR-8 = system: OVCAR-8
KM12 = system: KM12
SK-OV-3 = system: SK-OV-3
TK-10 = system: TK-10
SF-295 = system: SF-295
RPMI-8226 = system: RPMI-8226
OVCAR-3 = system: OVCAR-3
IGROV-1 = system: IGROV-1
NCI-H23 = system: NCI-H23
UACC-257 = system: UACC-257
UO-31 = system: UO-31
HCC 2998 = system: HCC 2998
ACHN = system: ACHN
OVCAR-4 = system: OVCAR-4
OVCAR-5 = system: OVCAR-5
MDA-MB-231 = system: MDA-MB-231
MDA-MB-435 = system: MDA-MB-435
MCF7 = system: MCF7
M14 = system: M14

Measured: GI50

CC(=O)OC1CC[C@@]2(C)C(=CC[C@@H]3[C@@H]2CC[C@]2(C)Nc4c(cnn4-c4ccc(F)cc4)C[C@@H]32)C1 (stereo not given in full)
inactive: NCI-H522 68.4 µM | OVCAR-8 40 µM | KM12 16.2 µM | SK-OV-3 32.1 µM | TK-10 49 µM | SF-295 4.53 µM | RPMI-8226 3.24 µM | OVCAR-3 > 39.4 µM | IGROV-1 42.2 µM | NCI-H23 22.1 µM | UACC-257 45.1 µM | UO-31 12.6 µM | HCC 2998 > 100 µM | ACHN 35.3 µM | OVCAR-4 > 53.5 µM | OVCAR-5 > 87.5 µM | MDA-MB-231 33 µM | MDA-MB-435 39.4 µM | MCF7 > 34.8 µM | M14 30.5 µM

N#Cc1c(=O)c2cc([N+](=O)[O-])ccc2n2c1[nH]c1ccccc12
inactive: NCI-H522 2.18 µM | OVCAR-8 5.27 µM | KM12 5.85 µM | SK-OV-3 5.79 µM | TK-10 5.92 µM | SF-295 4.2 µM | RPMI-8226 1.91 µM | OVCAR-3 3.43 µM | IGROV-1 12.5 µM | NCI-H23 3.19 µM | UACC-257 7.46 µM | UO-31 4.3 µM | HCC 2998 7.21 µM | ACHN 9.48 µM | OVCAR-4 3.38 µM | OVCAR-5 6 µM | MDA-MB-231 4.76 µM | MDA-MB-435 10.3 µM | MCF7 6.92 µM | M14 7.96 µM

O=C1/C(=C/c2ccc(O)c(O)c2)CC/C1=C\c1ccc(O)c(O)c1
inactive: NCI-H522 2.01 µM | OVCAR-8 10 µM | KM12 9.79 µM | SK-OV-3 12.1 µM | TK-10 > 25.9 µM | SF-295 > 44.5 µM | RPMI-8226 2.23 µM | OVCAR-3 5.09 µM | IGROV-1 3.74 µM | NCI-H23 3.09 µM | UACC-257 20.8 µM | UO-31 2.29 µM | HCC 2998 > 21.6 µM | ACHN 4.98 µM | OVCAR-4 5.33 µM | OVCAR-5 > 42.2 µM | MDA-MB-231 28.7 µM | MDA-MB-435 4.68 µM | MCF7 6.15 µM | M14 3.03 µM

O=C1NC(N2CCOCC2)=N/C1=C\c1ccc(O)cc1
inactive: NCI-H522 16.4 µM | OVCAR-8 > 100 µM | KM12 > 100 µM | SK-OV-3 > 100 µM | TK-10 > 100 µM | SF-295 > 100 µM | RPMI-8226 > 100 µM | OVCAR-3 > 100 µM | IGROV-1 > 100 µM | NCI-H23 > 100 µM | UACC-257 > 100 µM | UO-31 > 100 µM | HCC 2998 > 100 µM | ACHN > 100 µM | OVCAR-4 > 100 µM | OVCAR-5 > 100 µM | MDA-MB-231 > 100 µM | MDA-MB-435 > 100 µM | MCF7 > 100 µM | M14 > 100 µM

CCCCCCCCC[C@@H]1C[C@@H]2CCC3C(C(=O)OC)=C(C)N=C(N1)N32 (stereo not given in full)
inactive: NCI-H522 2.96 µM | OVCAR-8 4.79 µM | KM12 3.43 µM | SK-OV-3 10.6 µM | TK-10 13.2 µM | SF-295 9.4 µM | RPMI-8226 6 µM | OVCAR-3 3.21 µM | IGROV-1 4.72 µM | NCI-H23 3.85 µM | UACC-257 10.5 µM | UO-31 15.3 µM | HCC 2998 2.86 µM | ACHN 16.1 µM | OVCAR-4 6.93 µM | OVCAR-5 18 µM | MDA-MB-231 5.13 µM | MDA-MB-435 2.25 µM | MCF7 3.72 µM | M14 5.46 µM

S=C(NN=C1NCCCCN1)Nc1ccc(Cl)cc1
inactive: NCI-H522 12.9 µM | OVCAR-8 10.3 µM | KM12 14.5 µM | SK-OV-3 15.1 µM | TK-10 27.3 µM | SF-295 13.7 µM | RPMI-8226 7.83 µM | OVCAR-3 35.8 µM | IGROV-1 16 µM | NCI-H23 18.5 µM | UACC-257 14.8 µM | UO-31 9.44 µM | HCC 2998 18.1 µM | ACHN 7.29 µM | OVCAR-4 38.9 µM | OVCAR-5 14.8 µM | MDA-MB-231 21 µM | MDA-MB-435 22.9 µM | MCF7 34 µM | M14 8.09 µM

CCc1nc(N)nc(N)c1-c1ccc([N+](=O)[O-])c(Cl)c1
inactive: NCI-H522 6.1 µM | OVCAR-8 3.7 µM | KM12 6.87 µM | SK-OV-3 27.5 µM | TK-10 24.9 µM | SF-295 2.59 µM | RPMI-8226 8.36 µM | OVCAR-3 11.5 µM | IGROV-1 3.31 µM | NCI-H23 3.56 µM | UACC-257 31 µM | UO-31 9.04 µM | HCC 2998 10 µM | ACHN 2.73 µM | OVCAR-4 46.5 µM | OVCAR-5 25.2 µM | MDA-MB-231 37.3 µM | MDA-MB-435 1.99 µM | MCF7 4.55 µM | M14 2.65 µM

CC1(C)[C@@H]2CC[C@@]1(C)CN(CCC[N+](C)(C)C)C2
inactive: NCI-H522 > 100 µM | OVCAR-8 > 100 µM | KM12 > 100 µM | SK-OV-3 > 100 µM | TK-10 > 100 µM | SF-295 > 100 µM | RPMI-8226 > 100 µM | OVCAR-3 > 100 µM | IGROV-1 > 100 µM | NCI-H23 > 100 µM | UACC-257 > 100 µM | UO-31 > 100 µM | HCC 2998 > 100 µM | ACHN > 100 µM | OVCAR-4 > 100 µM | OVCAR-5 > 100 µM | MDA-MB-231 > 100 µM | MDA-MB-435 > 100 µM | MCF7 > 100 µM | M14 > 100 µM

CCC(=O)NI1OC(=O)c2ccccc21
inactive: NCI-H522 15.9 µM | OVCAR-8 > 100 µM | KM12 > 100 µM | SK-OV-3 > 100 µM | TK-10 > 100 µM | SF-295 > 100 µM | RPMI-8226 45.9 µM | OVCAR-3 > 100 µM | IGROV-1 > 100 µM | NCI-H23 > 100 µM | UACC-257 > 100 µM | UO-31 > 100 µM | HCC 2998 > 100 µM | ACHN > 100 µM | OVCAR-4 > 100 µM | OVCAR-5 > 100 µM | MDA-MB-231 > 100 µM | MDA-MB-435 > 100 µM | MCF7 > 100 µM | M14 > 100 µM

CCOC(=O)/C(=C\c1cccc(C)c1)C(C)=O
inactive: NCI-H522 10 µM | OVCAR-8 21.6 µM | KM12 15.2 µM | SK-OV-3 25.8 µM | TK-10 16.3 µM | SF-295 23.4 µM | RPMI-8226 8.17 µM | OVCAR-3 14.5 µM | IGROV-1 15.4 µM | NCI-H23 17 µM | UACC-257 14.3 µM | UO-31 13.8 µM | HCC 2998 15.1 µM | ACHN 22.4 µM | OVCAR-4 19.2 µM | OVCAR-5 10.9 µM | MDA-MB-231 12.4 µM | MDA-MB-435 16.3 µM | MCF7 13.2 µM | M14 17.4 µM
